Patent US8816078B2, “Acidic gas removal by aqueous amine solvents” (Board of Regents, The University of Texas System, priority 2010, dated 2014)
Blank lines part the entries; values can stand above or below the molecule they belong to.

Experiments:
[1] = Cyclic CO2 capacity calculated from the regressed VLE model; format: physicochemical; conditions: for CO2 Capacity: Conc. (m): MDEA/PZ 7/2, PZ 8, MEA 7, HEP 7.7, AEP 6, 2-PE 8, AMP 4.8, EDA 12, DGA 10, PZ-MPZ 4/4, MPZ 8
[2] = Heat of CO2 absorption calculated from the VLE model; format: physicochemical; conditions: for ΔHabs@PCO2 = 1.5 kPa: Conc. (m): MDEA/PZ 7/2, PZ 8, MEA 7, HEP 7.7, AEP 6, 2-PE 8, AMP 4.8, EDA 12, DGA 10, PZ-MPZ 4/4, MPZ 8
Protocol: VLE models of CO2 partial pressure were regressed from experimental data to calculate CO2 capacity and enthalpy of CO2 absorption (ΔHabs).
Heat of absorption was calculated from the model mentioned above by applying the following thermodynamic equation: […]
Heat of absorption was calculated from the model mentioned above by applying the Gibbs-Helmholtz equation: […]
The heat absorption of CO2 at a 1.5 kPa, which is an average CO2 partial pressure for lean and rich solutions, was calculated.

[3] = Solubility and solids precipitation limits of amines in water; format: physicochemical
[4] = Thermal degradation in sealed stainless steel cylinders at 150° C., loss of original amine over time; format: physicochemical; conditions: 8 m 1-MPZ, end of the experiment (30 weeks)
Protocol: Samples of each solution were contained in stainless steel, well-sealed cylinders and placed in a forced-convection oven for extended periods of time. The loss of the original amine is tracked over time to determine the rate of thermal degradation.
The thermal degradation of 8 m 1-MPZ at 150° C. was studied. The main degradation products are PZ, 1,4-DMPZ, formyl amides, and formate.
The thermal degradation of a blend of 4 m PZ and 4 m 1-MPZ at 150° C. was previously studied. […] Based on the results of the 8 m 1-MPZ experiment discussed above, 1,4-DMPZ was expected to be produced as a degradation product.
Solutions with varying compositions were placed in thermal cylinders at 150° C. for up to 15 weeks. At this temperature, some degradation will occur, but the conversion between PZ, 1-MPZ, and 1,4-DMPZ should be able to be observed. Three starting solutions were used: 5 m PZ+2 m 1-MPZ+1 m 1,4-DMPZ (5/2/1), 5 m PZ+2.5 m 1-MPZ+0.5 m 1,4-DMPZ (5/2.5/0.5), and 5 m PZ+1.5 m 1-MPZ+[…]. To establish the blend concentrations, it was originally hypothesized that the equilibrium concentration would be 5/2/1. Therefore, that blend, as well as two blends with increased or decreased 1-MPZ concentrations were used and the concentration of 1,4-DMPZ was adjusted to maintain a total concentration of 8 m.

[5] = CO2 solubility (CO2 partial pressure) measured in the wetted wall column; format: physicochemical
From the text: (§1) VLE models of CO2 partial pressure were regressed from experimental data to calculate CO2 capacity and enthalpy of CO2 absorption (ΔHabs). […] MPZ and PZ-MPZ both have a slightly higher capacity than PZ. PZ-MPZ absorbs CO2 at a slightly slower rate than 8 m PZ at rich loading, about 50% faster than 7 m MEA. kg′ for MPZ is the same to 7 m MEA. Heat of CO2 absorption for PZ-MPZ (ΔHabs=70 kJ/mol) and MPZ (72 kJ/mol) is close to that for PZ (70 kJ/mol).
CO2 solubility for PZ-MPZ and MPZ are shown in FIG. 3 and FIG. 4, respectively. The filled points are experimental data at varied loadings and temperatures. Parameters for the following semi-empirical VLE equation (Equation 3) were regressed and the model was presented as solid curves in the figures. The curves fit the points satisfactorily. ln P=a+b/T+c·α+d·α/T+e·α^2 Eqn. 3
CO2 solubility for 1-MPZ and the PZ blend are shown in FIG. 11 and FIG. 12 respectively. The filled points are experimental data at varied loadings and temperatures. Parameters for the following semi-empirical VLE equation ln P=a+b/T+c·α+d·α/T+e·α^2 (Eqn. 3) were regressed and the model was presented as curves in the figures. α is the CO2 loading defined as nCO2/nalka. The curves fit the points satisfactorily.

[6] = CO2 absorption/desorption rate (liquid film mass transfer coefficient kg′) in the wetted wall column; format: physicochemical
From the text: The CO2 absorption rate of a particular amine may be useful in determining whether an amine is desirable for acidic gas removal. In general, a greater rate of CO2 absorption will allow for the use of less packing, reduced lean loading, or greater rich loading, which in turn can reduce energy consumption. The rate of CO2 absorption can be characterized as the normalized flux, kg′ (gmol/m^2-s-Pa), measured in a model contactor such as a wetted wall column. Similarly, a greater heat of CO2 desorption will reduce the energy requirement of an absorber/stripper relying upon temperature swing regeneration.
as §1
In FIG. 5, absorption/desorption rates for PZ-MPZ at 40° C., 60° C., 80° C. and 100° C. are compared with that of 7 m MEA and 8 m PZ at 40° C.
In FIG. 13 and FIG. 14, absorption/desorption rates for 1-MPZ and the PZ blend at 40° C., 60° C., 80° C. and 100° C. are compared with that of 7 m MEA and 8 m PZ at 40° C.

[7] = Solubility measurements of CO2 loaded PZ/1-MPZ/1,4-DMPZ blends; format: physicochemical
Protocol: Solubility measurements for CO2 loaded 3.9 m PZ/3.9 m 1-MPZ/0.2 m 1,4-DMPZ and 3.75 m PZ/3.75 m 1-MPZ/0.5 m 1,4-DMPZ solutions were taken to predict the solubility envelope of these blends. The solubility of the blends at varying loadings and temperatures are shown in FIG. 7 for the 3.9 m PZ/3.9 m 1-MPZ/0.2 m 1,4-DMPZ blend and in FIG. 8 for the 3.75 m PZ/3.75 m 1-MPZ/0.5 m 1,4-DMPZ blend. […] At 0° C., the 8 m blend: 3.75 m PZ/3.75 m 1-MPZ/0.5 m […] was soluble at 2° C. with a lean loading of 0.17 mol CO2/mol alkalinity, in contrast to 8 m PZ, which must be operated at loading above 0.3 to avoid solids precipitation.
A maximum CO2 loading of 0.41 and 0.39 was obtained for the 3.9 m PZ/3.9 m 1-MPZ/0.2 m 1,4-DMPZ blend and the 3.75 m PZ/3.75 m 1-MPZ/0.5 m 1,4 DMPZ blend respectively at room temperature without any solid precipitation. Intermediary loaded solutions were prepared by appropriately mixing the rich loaded and zero loaded solutions and observed at temperatures between 0° C. and the melting point of the solution.

[8] = 298K; cited from earlier work
[9] = ambient temperature; cited from earlier work

Structure (SMILES): OCCN1CCNCC1 [HEP]
CO2 Capacity [1]: 0.68 mol/kg (water + amine)
ΔHabs@PCO2 = 1.5 kPa [2]: 16.5 kcal/mol

Structure (SMILES): CC(N)CN (stereo not shown) [1,2-diaminopropane]
solids precipitation ([3]; rich conditions, 8 m): precipitates solids

Structure (SMILES): CN1CCNCC1 [1-MPZ, 1-methyl piperazine]
initial carbon not recovered in the form of the listed products [4]: 21%
PCO2 ([5]; Temp 40° C., CO2 Loading 0.10 mol/mol alka, 8 m 1-MPZ): 0.10 kPa
PCO2 ([5]; Temp 40° C., CO2 Loading 0.20 mol/mol alka, 8 m 1-MPZ): 1.32 kPa
PCO2 ([5]; Temp 40° C., CO2 Loading 0.26 mol/mol alka, 8 m 1-MPZ): 5.55 kPa
PCO2 ([5]; Temp 40° C., CO2 Loading […] alka, 8 m 1-MPZ): 0.35 kPa
PCO2 ([5]; Temp 60° C., CO2 Loading 0.10 mol/mol alka, 8 m 1-MPZ): 0.62 kPa
PCO2 ([5]; Temp 60° C., CO2 Loading 0.20 mol/mol alka, 8 m 1-MPZ): 6.41 kPa
PCO2 ([5]; Temp 60° C., CO2 Loading 0.26 mol/mol alka, 8 m 1-MPZ): 22.95 kPa
PCO2 ([5]; Temp 60° C., CO2 Loading […] alka, 8 m 1-MPZ): 2.15 kPa
PCO2 ([5]; Temp 80° C., CO2 Loading 0.10 mol/mol alka, 8 m 1-MPZ): 3.66 kPa
PCO2 ([5]; Temp 80° C., CO2 Loading 0.20 mol/mol alka, 8 m 1-MPZ): 25.30 kPa
PCO2 ([5]; Temp 80° C., CO2 Loading […] alka, 8 m 1-MPZ): 10.10 kPa
PCO2 ([5]; Temp 100° C., CO2 Loading 0.10 mol/mol alka, 8 m 1-MPZ): 12.84 kPa
PCO2 ([5]; Temp 100° C., CO2 Loading […] alka, 8 m 1-MPZ): 33.01 kPa
absorption/desorption rate compared with 8 m PZ and 7 m MEA ([6]; 0.5 kPa to 5 kPa CO2 partial pressure, comparators at 40° C.): nearly the same as 8 m PZ and much higher than 7 m MEA
cyclic CO2 capacity ([1]; difference between lean and rich CO2 loading at 500 Pa and 5,000 Pa CO2 partial pressure): 0.83 mol CO2/kg (water+amine)
heat absorption of CO2 ([2]; at 1.5 kPa CO2 partial pressure): 16 kcal/mol
miscibility with water [3]: fully miscible with water
precipitation when mixing only the amine in water [7]: no precipitation
first pKa [8]: 9.14
second pKa [8]: 4.63

Structure (SMILES): NCCN1CCNCC1 [AEP]
CO2 Capacity [1]: 0.66 mol/kg (water + amine)
ΔHabs@PCO2 = 1.5 kPa [2]: 17.2 kcal/mol

Structure (SMILES): CN1CCN(C)CC1 [1,4-DMPZ, 1,4-dimethyl-piperazine]
precipitation when mixing only the amine in water [7]: no precipitation

Structure (SMILES): C1CNCCN1.O.O.O.O.O.O [piperazine hexahydrate]
solubility in water [9]: about 2 moles/kg H2O

Structure (SMILES): CC1CNCCN1 (racemic) [2MPZ, 2-methyl piperazine]
PCO2 ([5]; Temp 40° C., CO2 Loading 0.102 mol/mol alka, 8 m MPZ): 0.01 kPa
PCO2 ([5]; Temp 40° C., CO2 Loading 0.154 mol/mol alka, 8 m MPZ): 0.04 kPa
PCO2 ([5]; Temp 40° C., CO2 Loading 0.203 mol/mol alka, 8 m MPZ): 0.12 kPa
PCO2 ([5]; Temp 40° C., CO2 Loading 0.253 mol/mol alka, 8 m MPZ): 0.32 kPa
PCO2 ([5]; Temp 40° C., CO2 Loading 0.3 mol/mol alka, 8 m MPZ): 0.96 kPa
PCO2 ([5]; Temp 40° C., CO2 Loading 0.365 mol/mol alka, 8 m MPZ): 4.73 kPa
PCO2 ([5]; Temp 60° C., CO2 Loading 0.102 mol/mol alka, 8 m MPZ): 0.09 kPa
PCO2 ([5]; Temp 60° C., CO2 Loading 0.154 mol/mol alka, 8 m MPZ): 0.29 kPa
PCO2 ([5]; Temp 60° C., CO2 Loading 0.203 mol/mol alka, 8 m MPZ): 0.86 kPa
PCO2 ([5]; Temp 60° C., CO2 Loading 0.253 mol/mol alka, 8 m MPZ): 2.26 kPa
PCO2 ([5]; Temp 60° C., CO2 Loading 0.3 mol/mol alka, 8 m MPZ): 4.87 kPa
PCO2 ([5]; Temp 60° C., CO2 Loading 0.365 mol/mol alka, 8 m MPZ): 22.41 kPa
PCO2 ([5]; Temp 80° C., CO2 Loading 0.102 mol/mol alka, 8 m MPZ): 0.59 kPa
PCO2 ([5]; Temp 80° C., CO2 Loading 0.154 mol/mol alka, 8 m MPZ): 1.80 kPa
PCO2 ([5]; Temp 80° C., CO2 Loading 0.203 mol/mol alka, 8 m MPZ): 4.06 kPa
PCO2 ([5]; Temp 80° C., CO2 Loading 0.253 mol/mol alka, 8 m MPZ): 9.72 kPa
PCO2 ([5]; Temp 80° C., CO2 Loading 0.3 mol/mol alka, 8 m MPZ): 22.06 kPa
PCO2 ([5]; Temp 100° C., CO2 Loading 0.102 mol/mol alka, 8 m MPZ): 2.68 kPa
PCO2 ([5]; Temp 100° C., CO2 Loading 0.154 mol/mol alka, 8 m MPZ): 7.39 kPa
PCO2 ([5]; Temp 100° C., CO2 Loading 0.203 mol/mol alka, 8 m MPZ): 18.65 kPa
absorption/desorption rate (kg′) compared with PZ and MEA ([6]; 0.5 kPa to 5 kPa P*CO2, comparators 7 m MEA and 8 m PZ at 40° C.): between MEA and PZ
CO2 Capacity [1]: 0.93 mol/kg (water + amine)
Heat of CO2 absorption (ΔHabs) ([2]; 8 m MPZ, 4 m PZ/4 m MPZ blend, 8 m PZ): 17.2 kcal/mol
ΔHabs@PCO2 = 1.5 kPa [2]: 17.2 kcal/mol
solubility over CO2 loading: highly soluble over the full range of CO2 loading

Further lines, results first:

CO2 Capacity [1]: 1.23 mol/kg (water + amine)
ΔHabs@PCO2 = 1.5 kPa [2]: 17.4 kcal/mol
Structure (SMILES): OCCC1CCCCN1 (stereo not shown) [2-PE]

CO2 Capacity [1]: 0.96 mol/kg (water + amine)
ΔHabs@PCO2 = 1.5 kPa [2]: 17.4 kcal/mol
Structure (SMILES): CC(C)(N)CO [AMP]

CO2 Capacity [1]: 0.38 mol/kg (water + amine)
ΔHabs@PCO2 = 1.5 kPa [2]: 19.4 kcal/mol
Structure (SMILES): NCCOCCO [DGA ®]

CO2 Capacity [1]: 0.47 mol/kg (water + amine)
ΔHabs@PCO2 = 1.5 kPa [2]: 19.6 kcal/mol
Structure (SMILES): NCCO [MEA, monoethanolamine]
